The source of these data is PubChem BioAssay (NCI).

Common to all, as to assay: growth of human tumour cells (NCI), 48 h
The subject of assay [1] is COLO 205 colon.
The test system of assay [2] is NCI-H23 lung.
Assay [3] deals with K-562 leukemia.
Assay [4] relates to SNB-19 CNS.
The test system of assay [5] is SF-539 CNS.
The test system of assay [6] is MCF7 breast.
Assay [7] deals with LOX IMVI melanoma.
Assay [8] relates to SR leukemia.
Assay [9] concerns MDA-MB-231 breast.
Assay [10] deals with EKVX NSCLC.

Each structure is given as a SMILES string.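 Exposure lasted 48 hours, with cells grown in 96-well plates and compounds tested at five concentrations. Definition used: TGI = concentration required for complete inhibition of growth.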

Turning to `CC1(C)Oc2ccc(Cl)cc2C12CC2`, the TGI was 32.9 µM in [1]; 59 µM in assay [2]; 39.2 µM in assay [3]; 31.5 µM in assay [4]; greater than 100 µM in assay [5]; 33.3 µM in [6]. For the same compound, the TGI in [7] came to 30.9 µM; in [8] it was 36.4 µM; in [9], 47.6 µM; in [10], 37.9 µM.

For `C=C1C(=O)[C@]23[C@H](O)[C@H]1CC[C@H]2[C@@]12CO[C@@]3(O)C[C@@H]1C(C)(C)CC[C@@H]2O`, the TGI is 7.52 µM in assay [1]; greater than 25 µM in assay [2]; greater than 25 µM in assay [3]; greater than 25 µM in assay [4]; 16.7 µM in assay [5]; 13.1 µM in assay [6]. The TGI in assay [7] was 13.9 µM; in assay [8] it was greater than 25 µM; in assay [9] it was 17.9 µM; in assay [10], greater than 25 µM.

On to `CC(C)OC(=O)c1ccc(CCC2=CC(=O)C(Br)=CC2=O)cc1`, for which the TGI came out at 24.7 µM in [1]; 26.2 µM in assay [2]; 9.12 µM in assay [3]; 29.2 µM in [4]; 35.5 µM in assay [5]; 35.2 µM in assay [6]. Besides, the TGI in assay [7] is 30.8 µM; in assay [8], greater than 100 µM; in assay [9] it was 31.1 µM; in assay [10], 31.1 µM.

For `CCOC(OCC)C(CCc1ccccc1)c1c(N)nc(N)[nH]c1=O` (stereo not given), the TGI in [1] is 49.3 µM; in assay [2], greater than 100 µM; in [3] it was 84.7 µM; in assay [4], greater than 100 µM; in [5], greater than 100 µM; in assay [6], greater than 100 µM. Besides, the TGI in [7] is greater than 100 µM; in assay [8], greater than 100 µM; in [9], greater than 100 µM; in assay [10], 22.3 µM.

For `Cc1cc2nc3n(c2cc1C)C(c1c(F)cccc1F)SC3` (stereo not given), the TGI in assay [1] was 44.6 µM; in assay [2], 38.2 µM; in assay [3] it was 63.9 µM; in [4], 53.4 µM; in [5] it was 38.2 µM; in [6], 34.2 µM. Besides, the TGI in assay [7] was determined as 30.3 µM; in assay [8], 42.9 µM; in assay [9], 41.4 µM; in assay [10] it was 75.4 µM.

`COc1ccc2[nH]c(C(=O)N3CC(CCl)c4ccc([N+](=O)[O-])cc43)cc2c1` (stereo not given): the TGI in assay [1], in assay [2], in assay [3], in assay [4], in assay [5] and in [6] was greater than 100 µM throughout. In addition, the TGI in [7], in assay [8], in [9] and in assay [10] was greater than 100 µM in each case.

For the compound `COC(=O)C1=C(OC(=O)/C(=C/c2ccc(Cl)cc2)c2ccccc2)C(C(=O)OC)[C@@]2(O)[C@@H](C(=O)OC)[C@H](C)C[C@@H]1[C@@H]2C(=O)OC` (stereo not given in full), the TGI in assay [1], in [2], in [3], in assay [4], in [5] and in [6] was greater than 100 µM each time. The TGI in assay [7], in [8], in [9] and in assay [10] was greater than 100 µM throughout.

Regarding `COc1ccc(OC)c(CNc2ccc(O)c(C(=O)NCCc3ccc(F)cc3)c2)c1`, the TGI in [1] is 40.2 µM; in assay [2], greater than 100 µM; in [3] it was 19.1 µM; in assay [4], 54.1 µM; in assay [5], 35.7 µM; in [6], 59.2 µM. Further, the TGI in assay [7] was 25.3 µM; in assay [8] it was 12.1 µM; in [9], 21.7 µM; in assay [10], 65.6 µM.

With `Cc1ccc(S(=O)(=Nc2ccccc2)C(C(C)C)C(C)(C)Cl)cc1` (stereo not given), the TGI in assay [1] was 7.56 µM; in [2], 46.5 µM; in [3], greater than 50 µM; in [4], greater than 50 µM; in [5], greater than 50 µM; in assay [6], greater than 50 µM. Besides, the TGI in [7] was greater than 50 µM; in [8], 49.7 µM; in assay [9], greater than 50 µM; in assay [10], 47.3 µM.

As to `O=C(c1ccc(Cl)cc1)N(Cc1cccnc1)C(=S)N(Cc1cccnc1)C(=O)c1ccc(Cl)cc1`, the TGI was 43.4 µM in assay [1]; greater than 100 µM in assay [2]; greater than 100 µM in [3]; greater than 100 µM in assay [4]; 50.4 µM in assay [5]; greater than 100 µM in assay [6]. In addition, the TGI in [7] was 47.4 µM; in assay [8], greater than 100 µM; in assay [9], 59.3 µM; in assay [10], greater than 100 µM.

For the compound `c1ccc([C@H]2CN3CCSC3=N2)cc1`, the TGI in assay [1], in assay [2], in [3], in [4], in assay [5] and in assay [6] was greater than 100 µM in each case. Besides, the TGI in assay [7], in [8], in assay [9] and in assay [10] was greater than 100 µM each time.

In the case of `O=C(NN=C1CCCCC1)Nc1ccccc1Cl`, the TGI in assay [1], in assay [2], in [3], in assay [4], in assay [5] and in [6] was greater than 100 µM in each case. Moreover, the TGI in [7], in assay [8], in assay [9] and in [10] was greater than 100 µM in each case.

Consider `Cc1ccc([N+](=O)[O-])cc1S(=O)(=O)Nc1ccc(C2=NN(c3ccc([N+](=O)[O-])cc3[N+](=O)[O-])C(c3ccccc3O)C2)cc1` (stereo not given), for which the TGI in [1] was greater than 100 µM; in assay [2] it was 59.7 µM; in assay [3] it was greater than 100 µM; in assay [4], greater than 100 µM; in [5] it was greater than 100 µM; in [6], greater than 100 µM. Also, the TGI in assay [7] was greater than 100 µM; in [8], greater than 100 µM; in assay [9], 86.6 µM; in assay [10], 90.6 µM.

On to `COc1ccc(N2CCN(c3ccc4c(c3)NCC(=O)N4)CC2)cc1`, for which the TGI was greater than 100 µM in assay [1]; greater than 100 µM in assay [2]; greater than 100 µM in assay [3]; greater than 100 µM in assay [4]; 54.1 µM in assay [5]; greater than 100 µM in assay [6]. Moreover, the TGI in [7] was greater than 100 µM; in assay [8], 44.4 µM; in assay [9], greater than 100 µM; in [10] it was greater than 100 µM.

As to `O=C(NCCO)c1c(O)c2ccccc2[nH]c1=O`, the TGI in [1], in assay [2], in [3], in assay [4], in assay [5] and in assay [6] was greater than 100 µM in each case. In addition, the TGI in [7], in assay [8], in assay [9] and in assay [10] was greater than 100 µM throughout.

Turning to `COC(=O)C1(NC(=O)C(N)CC(=O)O)C(C)C1C` (stereo not given), the TGI in assay [1], in assay [2], in [3], in [4], in assay [5] and in assay [6] was greater than 100 µM in each case. The TGI in assay [7], in [8], in [9] and in assay [10] was greater than 100 µM in each case.

With `Clc1ccc(OCC2NC3C=CC32)cn1` (stereo not given), the TGI in assay [1], in assay [2], in assay [3], in [4], in [5] and in [6] was greater than 100 µM each time. Further, the TGI is greater than 100 µM in assay [7], greater than 100 µM in assay [8], greater than 100 µM in assay [9] and 93.7 µM in [10].

On to `CCCCCCC(CCl)c1sc(-c2csc(CCNC(=O)OC(C)(C)C)n2)nc1C(=O)OC` (stereo not given), for which the TGI in [1] was greater than 100 µM; in assay [2], greater than 100 µM; in assay [3], greater than 100 µM; in assay [4], greater than 100 µM; in assay [5] it was 44.4 µM; in [6] it was 29.5 µM. Besides, the TGI in assay [7] is 25.9 µM; in assay [8] it was greater than 100 µM; in [9] it was greater than 100 µM; in assay [10], greater than 100 µM.

`O=c1c2c([nH]c3cc4c(cc13)OCO4)-c1ccccc1CCC2`: the TGI in [1], in assay [2], in [3], in assay [4], in assay [5] and in [6] was greater than 50 µM throughout. In addition, the TGI in assay [7] was greater than 50 µM; in assay [8], 38.4 µM; in assay [9], greater than 50 µM; in assay [10], greater than 50 µM.

In the case of `Cc1ccccc1NC(=S)N/N=C(/c1ccccc1)c1ccccn1`, the TGI was found to be 19.1 µM in assay [1]; 21.5 µM in assay [2]; 4.17 µM in assay [3]; 16.5 µM in [4]; 7.76 µM in [5]; 15.3 µM in assay [6]. For the same compound, the TGI in assay [7] is 20.4 µM; in assay [8] it was greater than 21.2 µM; in [9], 12.7 µM; in [10], 3.43 µM.

Consider `O=C1c2ccccc2C(=O)N1C(=S)c1ccccc1`, for which the TGI in assay [1], in assay [2], in [3], in assay [4], in assay [5] and in assay [6] was greater than 100 µM throughout. The TGI in assay [7], in assay [8], in assay [9] and in [10] was greater than 100 µM in each case.
